# Measurements published in patent publication US5428053A, “1-aminoacetamidopyrroles and 1-amino acetamido-2-(substituted) pyrroles and related compounds” (priority 1993, dated 1995).
# Where a name gives a salt, the structure may show the parent alone. Read-outs that look alike come from different tables or passages of the source.
# Assays:
# [1] = Enhancement of step-down passive avoidance in rats; assay type: in vivo, rat (male Sprague Dawley); details: ip, 30 min prior, 24 hrs after acquisition
# Description: In this assay, rats step off a wooden platform and subsequently receive a low-level foot shock. After 24 hours, the rats are observed for their ability to acquire and remember a passive avoidance behavior, that is, to stay on the platform. Male Sprague Dawley rats (Charles River) weighing 275-325 g were used in the passive avoidance procedure. Following a 11/2 week acclimation to the vivarium (5 rats per cage) where food and water were available ad libitum, rats were transported to the laboratory on day 1 of testing and acclimated to the experimental area and the investigator. Rats were labeled (tails marked) and handled by the investigator, then gently placed on a wooden platform (14×10.5×3.5 cm) in the experimental chamber (30.5×25×27 cm.) The chamber is equipped with a single house light and white noise generator to mask extraneous sounds. Once the animal stepped off the platform (all 4 paws touching the grid floor where grids are equally spaced every 2 cm), it was picked up by the base of the tail and returned to the home cage and then to the vivarium. On day 2, rats were returned to the laboratory and again acclimated to the experimental area for 30 min. Rats were intraperitoneally administered vehicle or compounds 30 min. prior to testing in a dosage volume of 1 ml/kg. Then the rats were gently placed on the wooden platform and their latency (in sec.) to step-down was recorded. When all four paws touched the grid, a low level 0.28 mA electric shock was delivered for 3 sec. by means of a Coulbourn Instruments grid floor shocker. Rats were immediately removed from the experimental chamber to their home cage when the shock ceased. […] Fifteen minutes later, this procedure was repeated. Rats were then returned to the vivarium. […] The latencies of each drug group on day 3 (24 hrs. following acquisition) was compared to the latencies of the vehicle control group by the non-parametric Mann-Whitney U test.
# [2] = molecular target: T1, NMDA associated strychnine-insensitive glycine modulatory site (Rattus norvegicus, UniProt P35439); assay: biochemical; set-up: species or system rat (male Sprague Dawley, cortical tissue); details: for EC50: 2.5 nM [3H]TCP, L-glutamic acid 10^-7 M, read-out: ENHANCEMENT OF [3H]TCP BINDING EC50
# T1 construct: cortical tissue obtained from male Sprague Dawley rats; from tissue; host or cells: cortical tissue of male Sprague Dawley rats, crude synaptosomal homogenate, lysed and washed
# [3] = molecular target: T2, glycine binding site associated with the N-methyl-D-aspartate (NMDA) receptor complex (Rattus norvegicus, UniProt P35439); assay: biochemical; set-up: species or system rat (male Wistar, cortex)
# T2 construct: Cortices of male Wistar rats are dissected over ice; from tissue; host or cells: cerebral cortex of male Wistar rats, Triton X-100 treated washed membranes
# Description: This procedure is a modification of the method described by Monahan et al.^1
# 1. Buffer A: 0.5M Tris maleate, pH 7.4 59.3 g Tris maleate bring to 0.5 l Adjust pH to 7.4 with 0.5M Tris base
# 2. Buffer B: 50 mM Tris maleate, pH 7.4 Dilute Buffer A 1:10 with distilled water, adjust pH with 50 mM Tris maleate (acid) or 50 mM Tris base.
# 3. […] Aliquots of 20 μl to the assay tube will give a final concentration of 10^-3 M.
# 4. […] Aliquots of 50 μl are added to yield a final assay concentration of 10 nM.
# 6. Triton-X 100, 10% (v/v). A stock solution of Triton-X 100, 10% can be prepared and stored in the refrigerator. Dilute 1.0 ml of Triton-X 100 to 10.0 ml with distilled water. On the day of the assay, the tissue homogenate (1:15 dilution) is preincubated with an aliquot of the 10% solution to give a final concentration of 0.04% (v/v).
# Cortices of male Wistar rats are dissected over ice and homogenized in ice-cold 0.32M sucrose (1:15 w/v) for 30 seconds with a Tissumizer setting at 70. Three cortices are pooled for one preparation. The homogenate is centrifuged at 1,000 g for 10 minutes. The supernatant is centrifuged at 20,000 g for 20 minutes. Resuspend the pellet in 15 volumes of ice-cold distilled water (Tissumizer setting 70, 15 sec) and spin at 7,600 g for 20 minutes. Save the supernatant, swirl off the upper buffy layer of the pellet and add to the supernatant. Centrifuge the supernatant at 48,000 g for 20 minutes. Resuspend the pellet with 15 volumes of cold distilled water and centrifuge. Discard the supernatant and store the pellet at -70° C.
# On the day of the assay, resuspend the pellet in 15 volumes ice-cold 50 mM Tris maleate, pH 7.4. Preincubate the homogenate with Triton-X in a final concentration of 0.04% (v/v) for 30 minutes at 37° C. with agitation. Centrifuge the suspension at 48,000 g for 20 minutes. Wash the pellet an additional 3 times by resuspension with cold buffer and centrifugation. The final pellet is resuspended in a volume 25 times the original net weight.
# 1. Prepare assay tubes in triplicate.
# 50 μl Buffer A, 0.5M Tris maleate, pH 7.4
# or appropriate concentration of inhibitor
# 500 μl Tissue homogenate
# 2. Following the addition of the tissue, the tubes are incubated for 20 minutes in an ice-bath at 0°-4° C. Terminate the binding by centrifugation for 20 minutes. Return the tubes to ice. Aspirate and discard the supernatant. Carefully rinse the pellet twice with 1 ml ice-cold buffer, avoiding disruption of the pellet. Transfer the pellet to scintillation vials by vortexing the pellet with 2 ml of scintillation fluid, rinse the tubes twice with 2 ml and add an additional 4 ml of scintillation fluid.
# 3. […] IC50 values for the competing compound are calculated by log-probit analysis of the data.
# [4] = T-maze reinforced alternation task in rats (scopolamine-induced deficit); assay type: in vivo, rat (male Wistar); details: i.p.
# Description: Male Wistar rats (Charles River) weighing 450-700 g were used in the T-maze procedure. Rats were housed (3 rats per cage) under standard laboratory conditions in the vivarium where food and water were available ad libitum. During training and testing, animals were transported to the dimly lit test room and acclimated for 30 min. The Lafayette Instruments T-maze consisted of a start box (30×20 cm), an alley way to the choice point (30×20 cm), a choice point area (25×25 cm), and two goal areas (30×20 cm) with a shock grid (grids every 11/2 cm) serving as the floor of the maze. Each session in the maze was controlled by a microprocessor.
# Initially, animals were trained to greater than 70% choice accuracy in the maze for five consecutive days each week over a two week period. Following a 10 min. habituation to the maze, training commenced. All reinforced alternation sessions consisted of ten pseudo randomly paired trials. The first trial of each pair was the forced trial where the animal was forced to go to either the left or right goal box, since only one goal box door was open. The second trial was the choice trial where both goal box doors were open and the correct response was to enter the opposite goal to that entered on the previous forced run trial.
# Each trial began when the rat was placed in the start box and allowed 15 sec. to enter the appropriate goal box. […] Following a 30 sec. intertrial interval (ITI), the next trial commenced. If during the choice trial, the rat entered the incorrect goal box (same goal entered during the forced trial), the guillotine door was closed and the rat received 5 electric shocks during the first 15 sec. of the 30 sec. ITI. All choices and latencies during the 10 paired trials were recorded by the computer controlled printer.
# Animals which met criteria during training ([…]) were considered trained colony animals and were tested every other week. Testing was conducted over 3 consecutive days. Control sessions for baseline responding were conducted on days 1 and 2 so that the mean percentage of correct choices for each animal to qualify for drug testing was set at ≥70% correct choices.
# The next time these animals were tested, they were administered pharmacological agents i.p. (at appropriate pretreatment times) in combination with scopolamine to measure effectiveness in reversing scopolamine-induced deficits in choice accuracy.
# For statistical analysis, the means of each treatment group (drug+scopolamine) were compared to the mean of both the scopolamine alone group and the control group by the Dunnett's test.
# [5] = tested on: NMDA receptor; assay: Stimulation of [3H]TCP binding by NMDA in extensively washed rat cortical membranes; details: glycine 1 μM added to NMDA
# [6] = read-out: % OF MAXIMAL GLYCINE RESPONSE
# [7] = read-out: % OF MAXIMAL GLYCINE RESPONSE, concentration 10 μM
SMILES,% Change from Control (median latency to step-down) ([1]; 10 mg/kg),% Change from Control (median latency to step-down) ([1]; 20 mg/kg),EC50 [2] [µM],IC50 [3] [µM],further results
Cl.NCC(=O)Nn1cccc1 [2-Amino-N-1H-pyrrol-1-ylacetamide Hydrochloride],+281%,+625%,92,14.8,"% Change from Control (median latency to step-down) ([1]; 80 mg/kg): +512%; Emax at 100 µM [2, 6]: 65%"
Cl.NCC(=O)Nn1cccc1Cl [2-Amino-N-(2-chloro-1H-pyrrol-1-yl)acetamide Hydrochloride],+158%,+25%,,,% Change from Control (median latency to step-down) ([1]; 40 mg/kg): +133%
NCC(=O)Nn1cccc1C(=O)c1cccs1 [2-Amino-N-[2-(2-thienylcarbonyl)-1H-pyrrol-1-yl]acetamide Hydrochloride],,,0.38,6,"Emax at 10 µM [2, 6]: 78%"
NCC(=O)Nn1cccc1C(=O)c1ccccc1Cl [2-amino-N-[2-(2-chloro-benzoyl)-1H-pyrrol-1-yl]-acetamide hydrochloride],,,3,22.5,"Emax at 10 µM [2, 6]: 56%"
NCC(=O)Nn1cccc1C(=O)c1ccccc1F [2-amino-N-[2-(2-fluorobenzoyl)-1H-pyrrol-1-yl]acetamide hydrobromide hemihydrate],+471%,+836%,3.1,11.2,"Emax at 10 µM [2, 7]: 77%; Mean % of Correct Choice ([4]; with scopolamine, 1/20 mg/kg (scopolamine/drug)): 64%"
COc1ccccc1C(=O)c1cccn1NC(=O)CN.Cl [2-amino-N-[2-(2-methoxy-benzoyl)-1H-pyrrol-1-yl]-acetamide hydrochloride],+37%,,,,% Change from Control (median latency to step-down) ([1]; 1.25 mg/kg): +237%; % Change from Control (median latency to step-down) ([1]; 5 mg/kg): +80%
NCC(=O)Nn1cccc1C(=O)c1ccccc1C(F)(F)F [2-amino-N-[2-(2-trifluoro-methyl)benzoyl)-1H-pyrrol-1-yl]acetamide hydrobromide],+77%,+122%,,,% Change from Control (median latency to step-down) ([1]; 5 mg/kg): +900%; % Change from Control (median latency to step-down) ([1]; 40 mg/kg): +33%
NCC(=O)Nn1cccc1C(=O)c1cccc(F)c1.O=C(O)/C=C/C(=O)O [2-amino-N-[2-(3-fluorobenzoyl)-1H-pyrrol-1-yl]acetamide fumarate],+343%,+257%,0.6,4.8,"% Change from Control (median latency to step-down) ([1]; 5 mg/kg): +457%; Emax at 10 µM [2, 7]: 76%"
COc1ccc(C(=O)c2cccn2NC(=O)CN)cc1 [2-amino-N-[2-(4-methoxybenzoyl)-1H-pyrrol-1-yl]acetamide],,,2,6.6,"Emax at 100 µM ([2]; read-out: % OF MAXIMAL GLYCINE RESPONSE, concentration 100 μM): 89%"
NCC(=O)Nn1c(Cl)ccc1C(=O)c1ccccc1F [2-amino-N-[5-chloro-2-(2-fluorobenzoyl)-1H-pyrrol-1-yl]acetamide hydrobromide],,,1.7,6,"Emax at 30 µM ([2]; read-out: % OF MAXIMAL GLYCINE RESPONSE, concentration 30 μM): 65%"
N[C@@H]1CONC1=O [D-cycloserine],,,,,"% Change from Control (median latency to step-down) ([1]; 5 mg/kg): +120%; Mean % of Correct Choice ([4]; with scopolamine, 1/3 mg/kg (scopolamine/drug)): 59%; Mean % of Correct Choice ([4]; with scopolamine, 1/10 mg/kg (scopolamine/drug)): 61%"
CC(=O)c1cccn1NC(=O)CN [N-(2-Acetyl-1H-pyrrol-1-yl)-2-aminoacetamide Hydrochloride],,,1.3,22.5,"Emax at 10 µM [2, 6]: 71%"
CN1[C@@H]2C[C@@H](OC(=O)[C@H](CO)c3ccccc3)C[C@H]1[C@@H]1O[C@@H]12 [Scopolamine],,,,,"choice accuracy (overall responding at chance levels) ([4]; scopolamine 1 mg/kg, 30 min pretreatment): 50%; Mean % of Correct Choice ([4]; scopolamine alone 1 mg/kg): 45%"
NCC(=O)O [glycine],,,,,potentiation of the maximal effect of NMDA on [3H]TCP binding (factor) [5]: 1.7
